This note sets out measurements from US20150087673A1, “METHODS FOR USING AND BIOMARKERS FOR AMPK-ACTIVATING COMPOUNDS” (RIGEL PHARMACEUTICALS, INC., priority 2013, published 2015).

The subject of the test is AMPK. Nature of the test: AMPK activation assay (enzyme-linked immunosorbent assay). In kind it is cell-based. In short, it runs like this:
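Activation by each compound is measured using a conventional commercial immunoassay kit.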
As for `COc1ccc(CN2CCC(NC(=O)c3ccc(C(=O)N4CCC(Oc5ccc(F)cc5)CC4)cn3)CC2)cc1` [Compound 161, 5-(4-(4-fluorophenoxy)piperidine-1-carbonyl)-N-(1-(4-methoxybenzyl)piperidin-4-yl)picolinamide], the EC50 is under 500 nM.

`N#Cc1ccc(CN2CCC(NC(=O)c3ccc(C(=O)N4CCN(C(=O)c5ccccc5)CC4)cn3)CC2)cc1` [Compound 80, 5-(4-benzoylpiperazine-1-carbonyl)-N-(1-(4-cyanobenzyl)piperidin-4-yl)picolinamide]: the EC50 lay in the range of 1000 to 5000 nM.

`COc1ccc(CN2CCC(NC(=O)c3ccc(C(=O)N4CCC(Oc5cccc(NC(C)=O)c5)CC4)nc3)CC2)cc1` [Compound 412, 6-(4-(3-acetamidophenoxy)piperidine-1-carbonyl)-N-(1-(4-methoxybenzyl)piperidin-4-yl)nicotinamide]: the EC50 is 1000 to 5000 nM.

For `COc1ccc(CN2CCC(NC(=O)c3ccc(C(=O)N4CCN(Cc5ccc(F)cc5)CC4)nc3)CC2)cc1` [Compound 327, 6-(4-(4-fluorobenzyl)piperazine-1-carbonyl)-N-(1-(4-methoxybenzyl)piperidin-4-yl) nicotinamide], the EC50 is under 500 nM.

`N#Cc1ccc(CN2CCC(NC(=O)c3ccc(NC4CCN(c5ccc(Cl)cc5)CC4)cn3)CC2)cc1` [Compound 139, 5-(1-(4-chlorophenyl)piperidin-4-ylamino)-N-(1-(4-cyanobenzyl)piperidin-4-yl)picolinamide] had an EC50 of under 500 nM.

For `N#Cc1ccc(CN2CCC(NC(=O)c3ccc(C(=O)Nc4cccc(Cc5ccccc5)c4)cn3)CC2)cc1` [Compound 5, N^2-(1-(4-cyanobenzyl)piperidin-4-yl)-N^5-(3-benzylphenyl)pyridine-2,5-dicarboxamide], the EC50 lay within 500 to 1000 nM.

As for `CS(=O)(=O)c1ccc(OC2CCN(C(=O)c3ccc(C(=O)NC4CCN(Cc5cc(F)cc(F)c5)CC4)cn3)CC2)cc1` [Compound 236, N-(1-(3,5-difluorobenzyl)piperidin-4-yl)-6-(4-(4-(methylsulfonyl)phenoxy)piperidine-1-carbonyl)nicotinamide], the EC50 is under 500 nM.

On to `COc1ccc(CN2CCC(NC(=O)c3ccc(C(=O)N4CCC(C(=O)c5ccc(OC)cc5)CC4)cn3)CC2)cc1` [Compound 163, 5-(4-(4-methoxybenzoyl)piperidine-1-carbonyl)-N-(1-(4-methoxybenzyl)piperidin-4-yl)picolinamide], for which the EC50 is under 500 nM.

Compound `COc1ccc(CN2CCC(NC(=O)c3ccc(C(=O)N4CCC(Oc5ccc(C(=O)C6CC6)cc5)CC4)nc3)CC2)cc1` [Compound 458, 6-(4-(4-(cyclopropanecarbonyl)phenoxy)piperidine-1-carbonyl)-N-(1-(4-methoxybenzyl)piperidin-4-yl)nicotinamide] registered an EC50 of under 500 nM.

`N#Cc1ccc(CN2CCC(NC(=O)c3ccc(C(=O)N4CC(Oc5ccc(C#N)cc5)C4)cn3)CC2)cc1` [Compound 209, N-(1-(4-cyanobenzyl)piperidin-4-yl)-5-(3-(4-cyanophenoxy)azetidine-1-carbonyl)picolinamide]: the half-maximal effective concentration (EC50) is under 500 nM.

In turn, `O=C(NC1CCN(Cc2cc(F)cc(F)c2)CC1)c1ccc(C(=O)N2CCC(Oc3ccc(F)cc3)CC2)cn1` [Compound 295, N-(1-(3,5-difluorobenzyl)piperidin-4-yl)-5-(4-(4-fluorophenoxy)piperidine-1-carbonyl)picolinamide] gave an EC50 of under 500 nM.

Consider `N#Cc1ccc(CN2CCC(NC(=O)c3ccc(C(=O)N4CCC(S(=O)(=O)c5ccc(F)cc5)CC4)nc3)CC2)cc1` [Compound 471, N-(1-(4-cyanobenzyl)piperidin-4-yl)-6-(4-(4-fluorophenylsulfonyl)piperidine-1-carbonyl)nicotinamide], for which the EC50 is 1000 to 5000 nM.

Compound `O=C(Nc1ccc(Oc2ccc(F)cc2)nc1)c1ccc(C(=O)N2CCC(F)(C(=O)c3ccc(F)cc3)CC2)cn1` [Compound 67, 5-(4-(4-fluoro-4-fluorobenzoyl)piperidine-1-carbonyl)-N-(6-(4-fluorophenoxy)pyridin-3-yl)picolinamide] returned an EC50 of under 500 nM.

Turning to `N#Cc1ccc(CN2CCC(NC(=O)c3ccc(C(=O)N4CCC(Oc5cccnc5)CC4)cn3)CC2)cc1` [Compound 283, N-(1-(4-cyanobenzyl)piperidin-4-yl)-5-(4-(pyridin-3-yloxy)piperidine-1-carbonyl)picolinamide], the EC50 is under 500 nM.

Compound `N#Cc1ccc(CN2CCC(NC(=O)c3ccc(C(=O)Nc4ccn(Cc5ccc(C#N)cc5)n4)cn3)CC2)cc1` [Compound 38, N^5-(1-(4-cyanobenzyl)-1H-pyrazol-3-yl)-N^2-(1-(4-cyanobenzyl)piperidin-4-yl)pyridine-2,5-dicarboxamide] gave an EC50 of 500 to 1000 nM.

In turn, `COc1ccc(CN2CCC(NC(=O)c3ccc(C(=O)N4CCC(C(=O)c5ccc(S(C)(=O)=O)cc5)CC4)nc3)CC2)cc1` [Compound 223, N-(1-(4-methoxybenzyl)piperidin-4-yl)-6-(4-(4-(methylsulfonyl)benzoyl)piperidine-1-carbonyl)nicotinamide] registered an EC50 of 1000 to 5000 nM.

In the case of `N#Cc1ccc(CN2CCC(NC(=O)c3ccc(C(=O)N4CCCC(Oc5ccc(C#N)cc5)C4)cn3)CC2)cc1` (stereo not shown) [Compound 137, N-(1-(4-cyanobenzyl)piperidin-4-yl)-5-(3-(4-cyanophenoxy)piperidine-1-carbonyl)picolinamide], the EC50 is under 500 nM.

The compound `O=C(NC1CCN(Cc2ccc(N3CCCC3)cc2)CC1)c1ccc(C(=O)N2CCC(Oc3ccc(F)cc3)CC2)cn1` [Compound 196, 5-(4-(4-fluorophenoxy)piperidine-1-carbonyl)-N-(1-(4-(pyrrolidin-1-yl)benzyl)piperidin-4-yl)picolinamide] returned an EC50 of under 500 nM.

Compound `O=C(Nc1ccc(Oc2ccc(F)cc2)nc1)c1ccc(C(=O)N2CCN(Cc3ccc(F)cc3)CC2)nc1` [Compound 334, 6-(4-(4-fluorobenzyl)piperazine-1-carbonyl)-N-(6-(4-fluorophenoxy)pyridin-3-yl)nicotinamide] yielded an EC50 of under 500 nM.

Turning to `N#Cc1ccc(CN2CCC(NC(=O)c3ccc(C(=O)N4CCN(c5ccc(C#N)cc5)CC4)cn3)CC2)cc1` [Compound 340, N-(1-(4-cyanobenzyl)piperidin-4-yl)-5-(4-(4-cyanophenyl)piperazine-1-carbonyl)picolinamide], the EC50 is under 500 nM.

In turn, `COc1ccc(C(=O)C2CCN(C(=O)c3ccc(C(=O)NC4CCN(Cc5ccc(C#N)cc5)CC4)nn3)CC2)cc1` [Compound 387, N-(1-(4-cyanobenzyl)piperidin-4-yl)-6-(4-(4-methoxybenzoyl)piperidine-1-carbonyl)pyridazine-3-carboxamide] had an EC50 of under 500 nM.

`O=C(NC1CCN(Cc2ccc(F)cc2)CC1)c1ccc(C(=O)N2CCC(Oc3cccc(NC(=O)C4CC4)c3)CC2)nc1` [Compound 432, 6-(4-(3-(cyclopropanecarboxamido)phenoxy)piperidine-1-carbonyl)-N-(1-(4-fluorobenzyl)piperidin-4-yl)nicotinamide] displayed an EC50 of 500 to 1000 nM.

Compound `O=C(N[C@@H]1CCN(Cc2ccc(Cl)cc2)C[C@@H]1F)c1ccc(C(=O)N2CCN(Cc3ccc(F)cc3)CC2)cn1` (relative stereo) [Compound 127, N-(cis-1-(4-chlorobenzyl)-3-fluoropiperidin-4-yl)-5-(4-(4-fluorobenzyl)piperazine-1-carbonyl)picolinamide] showed an EC50 of under 500 nM.

On to `COc1cccc(OC2CCCN(C(=O)c3ccc(C(=O)NC4CCN(Cc5ccc(C#N)cc5)CC4)nc3)C2)c1` (stereo not shown) [Compound 277, N-(1-(4-cyanobenzyl)piperidin-4-yl)-5-(3-(3-methoxyphenoxy)piperidine-1-carbonyl)picolinamide], for which the EC50 is under 500 nM.

`O=C(NC1CCN(Cc2ccc(N3CCCC3)cc2)CC1)c1ccc(C(=O)N2CCC(Oc3ccc(S(=O)(=O)C4CC4)cc3)CC2)nc1` [Compound 248, 6-(4-(4-(cyclopropylsulfonyl)phenoxy)piperidine-1-carbonyl)-N-(1-(4-(pyrrolidin-1-yl)benzyl)piperidin-4-yl)nicotinamide]: the EC50 was under 500 nM.

As to `CS(=O)(=O)c1ccc(C(=O)C2CCN(C(=O)c3ccc(C(=O)N[C@@H]4CCN(Cc5ccc(C#N)cc5)C[C@H]4F)nc3)CC2)cc1` (relative stereo) [Compound 252, N-((trans)-1-(4-cyanobenzyl)-3-fluoropiperidin-4-yl)-5-(4-(4-(methylsulfonyl)benzoyl)piperidine-1-carbonyl)picolinamide], the EC50 was 500 to 1000 nM.

In turn, `O=C(Nc1ccc(Oc2ccc(F)cc2)nc1)c1ccc(C(=O)N2CCN(Cc3ccc(F)cc3)CC2)cn1` [Compound 65, 5-(4-(4-fluorobenzyl)piperazine-1-carbonyl)-N-(6-(4-fluorophenoxy)pyridin-3-yl)picolinamide] registered an EC50 of under 500 nM.

`CC(=O)c1ccc(OC2CCN(C(=O)c3ccc(C(=O)NC4CCN(Cc5ccc(F)cc5)CC4)cn3)CC2)cc1` [Compound 391, 6-(4-(4-acetylphenoxy)piperidine-1-carbonyl)-N-(1-(4-fluorobenzyl)piperidin-4-yl)nicotinamide] came in with an EC50 of under 500 nM.

On to `N#Cc1ccc(Cn2cc(NC(=O)c3ccc(C(=O)N4CCN(Cc5ccc(F)cc5)CC4)cn3)cn2)cc1` [Compound 23, N-(1-(4-cyanobenzyl)-1H-pyrazol-4-yl)-5-(4-(4-fluorobenzyl)piperazine-1-carbonyl)picolinamide], for which the EC50 is under 500 nM.

On to `N#Cc1ccc(CN2CCC(NC(=O)c3ccc(C(=O)N4CCC(Oc5cccc(NC(=O)C6CC6)c5)CC4)nc3)CC2)cc1` [Compound 431, N-(1-(4-cyanobenzyl)piperidin-4-yl)-6-(4-(3-(cyclopropanecarboxamido)phenoxy)piperidine-1-carbonyl)nicotinamide], for which the EC50 lay in the range of 500 to 1000 nM.

`COc1ccc(C(=O)C2CCN(C(=O)c3ccc(C(=O)N[C@@H]4CCN(Cc5csc(C)n5)C[C@@H]4F)cn3)CC2)cc1` [Compound 427, N-((3S,4R)-3-fluoro-1-((2-methylthiazol-4-yl)methyl)piperidin-4-yl)-6-(4-(4-methoxybenzoyl)piperidine-1-carbonyl)nicotinamide] came in with an EC50 of 1000 to 5000 nM.
